Measurements published in patent US12577231B2, “Androgen receptor PROTACS” (GlaxoSmithKline Intellectual Property Development Limited, priority 2023, dated 2026).
Where a chain is given by its changes, count along the chain named.

Tests used:
Androgen receptor L702H = biological target: T1, Androgen receptor L702H (Homo sapiens, UniProt P10275, L702H); experiment: Degradation of overexpressed Androgen Receptor in A549 cells (HiBiT), L702H; assay type: cell-based; settings: A549 cells overexpressing AR L702H, cycloheximide, 24 hours
T1 construct: expressed in transfected cells; host or cells: A549, transduced, puromycin selected
T1 sequence (P10275 1-920 L702H): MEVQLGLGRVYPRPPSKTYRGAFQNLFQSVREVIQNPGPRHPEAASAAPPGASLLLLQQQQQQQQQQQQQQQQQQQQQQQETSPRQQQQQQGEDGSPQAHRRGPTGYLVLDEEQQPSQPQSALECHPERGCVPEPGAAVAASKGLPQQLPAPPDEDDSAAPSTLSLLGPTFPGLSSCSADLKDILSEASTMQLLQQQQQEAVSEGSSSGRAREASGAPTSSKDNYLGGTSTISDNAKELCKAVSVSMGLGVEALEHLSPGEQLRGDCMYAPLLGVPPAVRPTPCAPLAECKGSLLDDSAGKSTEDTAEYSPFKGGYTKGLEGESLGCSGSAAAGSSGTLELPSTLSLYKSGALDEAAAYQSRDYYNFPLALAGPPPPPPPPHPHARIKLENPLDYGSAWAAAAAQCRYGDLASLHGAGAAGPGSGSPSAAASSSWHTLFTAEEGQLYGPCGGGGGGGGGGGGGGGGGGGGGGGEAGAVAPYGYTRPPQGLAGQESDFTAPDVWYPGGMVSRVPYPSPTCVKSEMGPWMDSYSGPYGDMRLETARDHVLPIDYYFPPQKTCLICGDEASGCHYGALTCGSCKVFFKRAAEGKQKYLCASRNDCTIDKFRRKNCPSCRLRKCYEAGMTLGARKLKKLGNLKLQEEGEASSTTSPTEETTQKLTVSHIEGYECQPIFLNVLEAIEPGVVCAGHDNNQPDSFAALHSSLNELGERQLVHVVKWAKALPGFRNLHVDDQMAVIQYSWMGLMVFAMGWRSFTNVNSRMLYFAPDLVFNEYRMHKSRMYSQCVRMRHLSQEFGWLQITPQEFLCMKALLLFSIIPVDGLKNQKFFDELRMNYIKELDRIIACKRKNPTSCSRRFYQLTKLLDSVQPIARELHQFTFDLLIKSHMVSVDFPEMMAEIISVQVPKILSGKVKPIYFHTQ
Method: (§1) A549 cells were transduced to express wild type androgen receptor and Androgen receptor containing the following mutations (L702H, H875Y W742C W742L F877L, T878A and T878A/H875Y) with HiBiT tags. Transduced cells following puromycin selection were maintained in a humidified incubator (at 37° C. and 5% CO2 in the DMEM medium supplemented with 1% (v/v) Pen/Strep, 1% (v/v) Glutamax and 10% (v/v) FBS. A549 cells expressing each AR construct were detached from plate and counted. Cell suspensions at density 0.2 million per mL were prepared. Cell suspension was supplemented with 100 μg/mL of cycloheximide to block protein synthesis. Cells were preincubated with cycloheximide for 1 hr before seeding. Cells were seeded onto 384-well plate at density of 5,000 in 25 μL per well. A two fold serial dilution of test compounds, starting from 1 μM (row A) in 2-fold serial dilution series across the column using Tecan D300e dispenser. […]
(§2) Nano-Glo HiBiT Lytic reagent was prepared by adding LgBiT protein and Nano-Glo® substrate to lytic buffer pre-equilibrated at room temperature following manufacturer protocol (https://www.promega.co.uk/resources/protocols/technical-manuals/101/nanoglo-luciferase-assay-system-protocol). […] The plates were then centrifuged (100×G, 1 min) and incubated on shaker for 10 mins before taking readings on Pherastar Luminescence microplate reader. […]

Androgen receptor T878A = biological target: T2, Androgen receptor T878A (Homo sapiens, UniProt P10275, T878A); experiment: Degradation of overexpressed Androgen Receptor in A549 cells (HiBiT), T878A; assay type: cell-based; settings: A549 cells overexpressing AR T878A, cycloheximide, 24 hours
T2 construct: expressed in transfected cells; host or cells: A549, transduced, puromycin selected
T2 sequence (P10275 1-920 T878A): T1 sequence (P10275 1-920 L702H) with H702L, T878A
Method: as §1, §2

Summary pXC50 (Androgen receptor L702H): 9.00 | Summary pXC50 (Androgen receptor T878A): 8.81
Structure (SMILES): COc1cc(O[C@H]2C(C)(C)[C@H](NC(=O)c3ccc(N4CCC(CN5CCC(n6ncc7c(N8CCC(=O)NC8=O)nccc76)CC5)CC4)c(F)c3)C2(C)C)ccc1C#N [Example 20, N-((1r,3r)-3-(4-Cyano-3-methoxyphenoxy)-2,2,4,4-tetramethylcyclobutyl)-4-(4-((4-(4-(2,4-dioxotetrahydropyrimidin-1(2H)-yl)-1H-pyrazolo[4,3-c]pyridin-1-yl)piperidin-1-yl)methyl)piperidin-1-yl)-3-fluorobenzamide]
